According to patent US9062033B2, “Chemical compounds” (Rottapharm Biotech S.r.l., priority 2011, dated 2015):
Where two headings read alike, the source gives them in different places.

What was measured:
human OX2 receptors = target: T1, human OX2 receptors (Homo sapiens, UniProt O43614); assay: Antagonistic activity against human OX2 receptor, [Ca2+]i fluorimetry (Fluo-4NW) in transfected HEK-293 cells activated with orexin-B; type: cell-based
T1 construct: expressed in transfected cells; host or cells: HEK-293 cells
T1 sequence (O43614 1-444): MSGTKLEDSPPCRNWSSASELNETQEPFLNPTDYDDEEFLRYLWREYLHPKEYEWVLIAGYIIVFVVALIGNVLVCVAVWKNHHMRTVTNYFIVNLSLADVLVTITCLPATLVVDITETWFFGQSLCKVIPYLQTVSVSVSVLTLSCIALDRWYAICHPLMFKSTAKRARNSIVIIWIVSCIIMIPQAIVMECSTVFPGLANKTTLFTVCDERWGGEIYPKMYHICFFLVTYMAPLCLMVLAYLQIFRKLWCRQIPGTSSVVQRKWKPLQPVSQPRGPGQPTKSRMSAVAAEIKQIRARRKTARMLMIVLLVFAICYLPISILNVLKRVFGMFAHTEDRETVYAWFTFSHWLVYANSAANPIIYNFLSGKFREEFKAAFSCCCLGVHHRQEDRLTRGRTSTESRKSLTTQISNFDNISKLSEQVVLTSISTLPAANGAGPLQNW
Protocol: (§1) In a typical experiment, the antagonistic activity against human OX1 and OX2 receptors is determined by using CHO e HEK-293 cells transfected with human recombinant OX1 and OX2 receptors respectively, seeded at density of 2 and 3×10^4 cells/well respectively in a 96 fluorimetry well plate. Thus the plate was loaded with the calcium dye (Fluo-4NW/probenecid in HBSS, Hepes 20 mM, pH 7.4; Invitrogen) at 37° C. for 60 min. Afterward the temperature was equilibrated at 22° C. for 15 min and the [Ca2+]i measured directly on the plate by using a fluorescent plate reader (CellLux Perkin Elmer).
(§2) Invention compounds were dissolved in DMSO, diluted in HBSS (DMSO, 0.3% final) and added to the wells. After 5 min CHO cells were activated with orexin-A, 3 nM while HEK-293 cells were activated with orexin-B, 10 nM.
(§3) The compounds, dissolved in DMSO and diluted in the medium (DMSO, 0.3% final), have been analysed in the 1 nM-1 μM concentration range (every concentration in duplicate). The antagonistic activity has been expressed as pKb (co-logarithm of the apparent dissociation constant calculated by using the modified Cheng Prusoff equation).
(§4) The results are expressed as percent of control specific […] response ((measured specific response/control specific agonist response)×100) obtained in the presence of the test compounds.
(§5) The IC50 values (concentration causing a half-maximal inhibition of the control specific agonist response) were determinated by non-linear regression analysis of the concentration curves generated with mean replicate values using hill equation curve fitting. The IC50 values are obtained by the arithmetical mean of at least two experiments. Compounds of the following example tested according to this example gave pKbs as follows: […]

human OX1 receptors = target: T2, human OX1 receptors (Homo sapiens, UniProt O43613); assay: Antagonistic activity against human OX1 receptor, [Ca2+]i fluorimetry (Fluo-4NW) in transfected CHO cells activated with orexin-A; type: cell-based; details: CHO cells transfected with human recombinant OX1; orexin-A 3 nM; pKb = co-logarithm of apparent dissociation constant, modified Cheng Prusoff
T2 construct: expressed in transfected cells; host or cells: CHO cells
T2 sequence (O43613 1-425): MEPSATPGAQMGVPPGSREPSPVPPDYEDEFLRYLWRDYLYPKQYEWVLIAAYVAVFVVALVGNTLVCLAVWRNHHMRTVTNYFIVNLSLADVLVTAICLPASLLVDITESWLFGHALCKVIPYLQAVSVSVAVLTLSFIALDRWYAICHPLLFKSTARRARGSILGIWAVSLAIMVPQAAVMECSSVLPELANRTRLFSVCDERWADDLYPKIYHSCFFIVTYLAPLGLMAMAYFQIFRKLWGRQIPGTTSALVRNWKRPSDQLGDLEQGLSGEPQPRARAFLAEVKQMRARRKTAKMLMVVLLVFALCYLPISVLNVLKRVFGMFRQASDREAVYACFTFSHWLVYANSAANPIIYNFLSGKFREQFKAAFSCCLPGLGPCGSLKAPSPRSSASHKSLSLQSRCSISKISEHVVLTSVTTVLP
Protocol: as §1, §2, §3, §4, §5

[1] = HEK-293 cells transfected with human recombinant OX2, orexin-B 10 nM, pKb = co-logarithm of apparent dissociation constant, modified Cheng Prusoff

| Kb (human OX2 receptors; [1]) | Kb (human OX1 receptors) | Kb (human OX2 receptors; comparison table with compound of WO2011006960, read-out: pKb OX2 (converted)) | SMILES |
| --- | --- | --- | --- |
| 7.94 nM | 50.1 nM | – | O=C(c1cc(F)ccc1-c1ncccn1)N1CC2(CC2)C[C@H]1CNc1cc(C(F)(F)F)ccn1 [Compound 1k, (S)-(5-fluoro-2-(pyrimidin-2-yl)phenyl)(6-(((4-(trifluoromethyl)pyridin-2-yl)amino)methyl)-5-azaspiro[2.4]heptan-5-yl)methanone] |
| 6.31 nM | 3.98 nM | – | Cc1nc(C(=O)N2CC3(CC3)C[C@H]2CNc2nc3ccc(F)cc3s2)c(-c2ccccc2)s1 [Compound 2h, (S)-(6-(((6-fluorobenzo[d]thiazol-2-yl)amino)methyl)-5-azaspiro[2.4]heptan-5-yl)(2-methyl-5-phenylthiazol-4-yl)methanone] |
| 12.6 nM | 15.8 nM | – | Cc1ccc(-c2ncccn2)c(C(=O)N2CC3(CC3)C[C@H]2CNc2cc(C(F)(F)F)cc(C)n2)c1 [Compound 1m, (S)-(5-methyl-2-(pyrimidin-2-yl)phenyl)(6-(((6-methyl-4-(trifluoromethyl)pyridin-2-yl)amino)methyl)-5-azaspiro[2.4]heptan-5-yl)methanone] |
| 2.51 nM | 31.6 nM | – | Cc1cc(C)nc(NC[C@@H]2CC3(CC3)CN2C(=O)c2nc(C)sc2-c2ccccc2)n1 [Compound 2f, (S)-(6-(((4,6-dimethylpyrimidin-2-yl)amino)methyl)-5-azaspiro[2.4]heptan-5-yl)(2-methyl-5-phenylthiazol-4-yl)methanone] |
| 10 nM | 2.51 nM | – | Cc1ccc(-c2ccccc2)c(C(=O)N2CC3(CC3)C[C@H]2CNc2ccc(C(F)(F)F)cn2)n1 [Compound 3b, (S)-(6-methyl-3-phenylpyridin-2-yl)(6-(((5-(trifluoromethyl)pyridin-2-yl)amino)methyl)-5-azaspiro[2.4]heptan-5-yl)methanone] |
| 10 nM | 3.98 nM | – | Cc1ccc(-c2ncccn2)c(C(=O)N2CC3(CC3)C[C@H]2CNc2ncc(C(F)(F)F)cc2F)n1 [Compound 3d, (S)-(6-(((3-fluoro-5-(trifluoromethyl)pyridin-2-yl)amino)methyl)-5-azaspiro[2.4]heptan-5-yl)(6-methyl-3-(pyrimidin-2-yl)pyridin-2-yl)methanone] |
| 50.1 nM | 10 nM | – | O=C(c1ncccc1-c1ccccc1)N1CC2(CC2)C[C@H]1CNc1ccc(C(F)(F)F)cn1 [Compound E5, (S)-(3-phenylpyridin-2-yl)(6-(((5-(trifluoromethyl)-pyridin-2-yl)amino)methyl)-5-azaspiro[2.4]heptan-5-yl)methanone] |
| 7.94 nM | 3.98 nM | – | Cc1ccc(-c2ccccc2)c(C(=O)N2CC3(CC3)C[C@H]2CNc2ncc(C(F)(F)F)cc2F)n1 [Compound 3e, (S)-(6-(((3-fluoro-5-(trifluoromethyl)pyridin-2-yl)amino)methyl)-5-azaspiro[2.4]heptan-5-yl)(6-methyl-3-phenylpyridin-2-yl)methanone] |
| 79.4 nM | 7.94 nM | – | Cc1ccc(-c2ncccn2)c(C(=O)N2CC3(CC3)C[C@H]2CNc2nc3cc(Cl)ccc3o2)n1 [Compound E10, (S)-(6-(((5-chlorobenzo[d]oxazol-2-yl)amino)methyl)-5-azaspiro[2.4]heptan-5-yl)(6-methyl-3-(pyrimidin-2-yl)pyridin-2-yl)methanone] |
| 79.4 nM | 79.4 nM | – | Cc1ccc(OCc2ccc(F)cc2F)c(C(=O)N2CC3(CC3)C[C@H]2CNc2ccc(C(F)(F)F)cn2)n1 [Compound 3n, (S)-(3-((2,4-difluorobenzyl)oxy)-6-methylpyridin-2-yl)(6-(((5-(trifluoromethyl)pyridin-2-yl)amino)methyl)-5-azaspiro[2.4]heptan-5-yl)methanone] |
| 79.4 nM | 5.01 nM | – | Cc1nc(C(=O)N2CC3(CC3)C[C@H]2CNc2ccc(Cl)cn2)c(-c2ccccc2)s1 [Compound 2a, (S)-(6-(((5-chloropyridin-2-yl)amino)methyl)-5-azaspiro[2.4]heptan-5-yl)(2-methyl-5-phenylthiazol-4-yl)methanone] |
| – | – | > 10000 nM | Cc1ccc(-c2ncccn2)c(C(=O)N2CC3(CC3)C[C@H]2CNc2ccc(Cl)cn2)c1 [Example 51 of WO2011006960, reference compound] |
